# Test results published in PubChem BioAssay (NCI).
#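 Test compounds were applied to cells in 96-well plates for 48 hours at 5 doses. Abbreviation: GI50, concentration required for 50% inhibition of growth. TGI is the concentration that stops growth completely.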
# Assays:
# Experiment in all cases: NCI tumour cell line growth inhibition, 48 h
# 786-0 renal = tested on: 786-0 renal
# A498 renal = tested on: A498 renal
# A549 NSCLC = tested on: A549 NSCLC
# ACHN renal = tested on: ACHN renal
# BT-549 breast = tested on: BT-549 breast
# CAKI-1 renal = tested on: CAKI-1 renal
# CCRF-CEM leukemia = tested on: CCRF-CEM leukemia
# COLO 205 colon = tested on: COLO 205 colon
# DU-145 prostate = tested on: DU-145 prostate
# EKVX NSCLC = tested on: EKVX NSCLC
# HCT-116 colon = tested on: HCT-116 colon
# HCT-15 colon = tested on: HCT-15 colon
# HL-60(TB) leukemia = tested on: HL-60(TB) leukemia
# HS 578T breast = tested on: HS 578T breast
# HT29 colon = tested on: HT29 colon
# IGROV1 ovarian = tested on: IGROV1 ovarian
# K-562 leukemia = tested on: K-562 leukemia
# KM12 colon = tested on: KM12 colon
# LOX IMVI melanoma = tested on: LOX IMVI melanoma
# M14 melanoma = tested on: M14 melanoma
# MCF7 breast = tested on: MCF7 breast
# MDA-MB-231 breast = tested on: MDA-MB-231 breast
# MDA-MB-435 = tested on: MDA-MB-435
# MOLT-4 leukemia = tested on: MOLT-4 leukemia
# NCI-H226 lung = tested on: NCI-H226 lung
# NCI-H23 lung = tested on: NCI-H23 lung
# NCI-H460 lung = tested on: NCI-H460 lung
# NCI-H522 lung = tested on: NCI-H522 lung
# NCI/ADR-RES ovarian = tested on: NCI/ADR-RES ovarian
# OVCAR-3 ovarian = tested on: OVCAR-3 ovarian
# OVCAR-4 ovarian = tested on: OVCAR-4 ovarian
# OVCAR-5 ovarian = tested on: OVCAR-5 ovarian
# OVCAR-8 ovarian = tested on: OVCAR-8 ovarian
# PC-3 prostate = tested on: PC-3 prostate
# RPMI-8226 leukemia = tested on: RPMI-8226 leukemia
# RXF 393 renal = tested on: RXF 393 renal
# SF-268 CNS = tested on: SF-268 CNS
# SF-295 CNS = tested on: SF-295 CNS
# SF-539 CNS = tested on: SF-539 CNS
# SK-MEL-2 melanoma = tested on: SK-MEL-2 melanoma
# SK-MEL-28 melanoma = tested on: SK-MEL-28 melanoma
# SK-MEL-5 melanoma = tested on: SK-MEL-5 melanoma
# SN12C renal = tested on: SN12C renal
# SNB-19 CNS = tested on: SNB-19 CNS
# SNB-75 CNS = tested on: SNB-75 CNS
# SR leukemia = tested on: SR leukemia
# SW-620 colon = tested on: SW-620 colon
# TK-10 renal = tested on: TK-10 renal
# U251 CNS = tested on: U251 CNS
# UACC-257 melanoma = tested on: UACC-257 melanoma
# UACC-62 melanoma = tested on: UACC-62 melanoma
# UO-31 renal = tested on: UO-31 renal
# HCC-2998 colon = tested on: HCC-2998 colon
# HOP-62 NSCLC = tested on: HOP-62 NSCLC
# HOP-92 NSCLC = tested on: HOP-92 NSCLC
# SK-OV-3 ovarian = tested on: SK-OV-3 ovarian
# T-47D breast = tested on: T-47D breast
smiles,measurement,setting,value
CO[C@@H]1[C@H]2[C@@H](C)c3ccoc3C[C@@H]2[C@@]2(C)CC[C@H](OC(=O)c3ccccc3)[C@](C)(C(=O)O)[C@]2(O)[C@@H]1OC(=O)c1ccccc1,GI50,786-0 renal,15.8 µM
same,TGI,786-0 renal,> 50 µM
same,GI50,A498 renal,0.941 µM
same,TGI,A498 renal,7.67 µM
same,GI50,A549 NSCLC,10.6 µM
same,TGI,A549 NSCLC,> 50 µM
same,GI50,ACHN renal,7.98 µM
same,TGI,ACHN renal,18.9 µM
same,GI50,BT-549 breast,8.99 µM
same,TGI,BT-549 breast,29.7 µM
same,GI50,CAKI-1 renal,7.46 µM
same,TGI,CAKI-1 renal,15.6 µM
same,GI50,CCRF-CEM leukemia,22.7 µM
same,TGI,CCRF-CEM leukemia,> 50 µM
same,GI50,COLO 205 colon,7.34 µM
same,TGI,COLO 205 colon,15.2 µM
same,GI50,DU-145 prostate,12.1 µM
same,TGI,DU-145 prostate,> 50 µM
same,GI50,EKVX NSCLC,11.1 µM
same,TGI,EKVX NSCLC,45.6 µM
same,GI50,HCT-116 colon,8.89 µM
same,TGI,HCT-116 colon,15.8 µM
same,GI50,HCT-15 colon,7.93 µM
same,TGI,HCT-15 colon,16.3 µM
same,GI50,HL-60(TB) leukemia,14.7 µM
same,TGI,HL-60(TB) leukemia,> 50 µM
same,GI50,HS 578T breast,24.8 µM
same,TGI,HS 578T breast,> 50 µM
same,GI50,HT29 colon,13.5 µM
same,TGI,HT29 colon,> 50 µM
same,GI50,IGROV1 ovarian,> 50 µM
same,TGI,IGROV1 ovarian,> 50 µM
same,GI50,K-562 leukemia,15.4 µM
same,TGI,K-562 leukemia,> 50 µM
same,GI50,KM12 colon,8.83 µM
same,TGI,KM12 colon,33.5 µM
same,GI50,LOX IMVI melanoma,6.73 µM
same,TGI,LOX IMVI melanoma,13.6 µM
same,GI50,M14 melanoma,8.53 µM
same,TGI,M14 melanoma,24.4 µM
same,GI50,MCF7 breast,17.4 µM
same,TGI,MCF7 breast,> 50 µM
same,GI50,MDA-MB-231 breast,6.07 µM
same,TGI,MDA-MB-231 breast,16 µM
same,GI50,MDA-MB-435,7.97 µM
same,TGI,MDA-MB-435,19.5 µM
same,GI50,MOLT-4 leukemia,9.67 µM
same,TGI,MOLT-4 leukemia,38.4 µM
same,GI50,NCI-H226 lung,9.77 µM
same,TGI,NCI-H226 lung,26.7 µM
same,GI50,NCI-H23 lung,10.6 µM
same,TGI,NCI-H23 lung,28.5 µM
same,GI50,NCI-H460 lung,13.4 µM
same,TGI,NCI-H460 lung,> 50 µM
same,GI50,NCI-H522 lung,34.9 µM
same,TGI,NCI-H522 lung,> 50 µM
same,GI50,NCI/ADR-RES ovarian,11.7 µM
same,TGI,NCI/ADR-RES ovarian,35.3 µM
same,GI50,OVCAR-3 ovarian,5.17 µM
same,TGI,OVCAR-3 ovarian,15.9 µM
same,GI50,OVCAR-4 ovarian,22.1 µM
same,TGI,OVCAR-4 ovarian,> 50 µM
same,GI50,OVCAR-5 ovarian,12 µM
same,TGI,OVCAR-5 ovarian,31.2 µM
same,GI50,OVCAR-8 ovarian,14.3 µM
same,TGI,OVCAR-8 ovarian,> 50 µM
same,GI50,PC-3 prostate,16.4 µM
same,TGI,PC-3 prostate,> 50 µM
same,GI50,RPMI-8226 leukemia,15.4 µM
same,TGI,RPMI-8226 leukemia,> 50 µM
same,GI50,RXF 393 renal,12.2 µM
same,TGI,RXF 393 renal,39 µM
same,GI50,SF-268 CNS,21.2 µM
same,TGI,SF-268 CNS,> 50 µM
same,GI50,SF-295 CNS,10.3 µM
same,TGI,SF-295 CNS,41.4 µM
same,GI50,SF-539 CNS,8.81 µM
same,TGI,SF-539 CNS,16.5 µM
same,GI50,SK-MEL-2 melanoma,24.1 µM
same,TGI,SK-MEL-2 melanoma,> 50 µM
same,GI50,SK-MEL-28 melanoma,14.5 µM
same,TGI,SK-MEL-28 melanoma,> 50 µM
same,GI50,SK-MEL-5 melanoma,7.21 µM
same,TGI,SK-MEL-5 melanoma,13.7 µM
same,GI50,SN12C renal,7.11 µM
same,TGI,SN12C renal,17 µM
same,GI50,SNB-19 CNS,16.1 µM
same,TGI,SNB-19 CNS,> 50 µM
same,GI50,SNB-75 CNS,> 50 µM
same,TGI,SNB-75 CNS,> 50 µM
same,GI50,SR leukemia,10.9 µM
same,TGI,SR leukemia,> 50 µM
same,GI50,SW-620 colon,9.3 µM
same,TGI,SW-620 colon,20 µM
same,GI50,TK-10 renal,14.3 µM
same,TGI,TK-10 renal,> 50 µM
same,GI50,U251 CNS,5.87 µM
same,TGI,U251 CNS,12 µM
same,GI50,UACC-257 melanoma,15.9 µM
same,TGI,UACC-257 melanoma,40.7 µM
same,GI50,UACC-62 melanoma,7.12 µM
same,TGI,UACC-62 melanoma,13.6 µM
same,GI50,UO-31 renal,> 50 µM
same,TGI,UO-31 renal,> 50 µM
O=S(=O)(OI(O)CC(F)(F)F)C(F)(F)F,TGI,786-0 renal,> 100 µM
same,TGI,A498 renal,> 100 µM
same,TGI,A549 NSCLC,> 100 µM
same,TGI,ACHN renal,> 100 µM
same,TGI,BT-549 breast,> 100 µM
same,TGI,CAKI-1 renal,> 100 µM
same,TGI,CCRF-CEM leukemia,> 100 µM
same,TGI,COLO 205 colon,> 100 µM
same,TGI,DU-145 prostate,> 100 µM
same,TGI,EKVX NSCLC,> 100 µM
same,TGI,HCC-2998 colon,> 100 µM
same,TGI,HCT-116 colon,> 100 µM
same,TGI,HCT-15 colon,> 100 µM
same,TGI,HL-60(TB) leukemia,> 100 µM
same,TGI,HOP-62 NSCLC,> 100 µM
same,TGI,HOP-92 NSCLC,> 100 µM
same,TGI,HT29 colon,> 100 µM
same,TGI,IGROV1 ovarian,> 100 µM
same,TGI,K-562 leukemia,> 100 µM
same,TGI,KM12 colon,> 100 µM
same,TGI,LOX IMVI melanoma,> 100 µM
same,TGI,M14 melanoma,> 100 µM
same,TGI,MCF7 breast,> 100 µM
same,TGI,MDA-MB-231 breast,> 100 µM
same,TGI,MDA-MB-435,> 100 µM
same,TGI,MOLT-4 leukemia,> 100 µM
same,TGI,NCI-H226 lung,> 100 µM
same,TGI,NCI-H23 lung,> 100 µM
same,TGI,NCI-H460 lung,> 100 µM
same,TGI,NCI-H522 lung,> 100 µM
same,TGI,NCI/ADR-RES ovarian,> 100 µM
same,TGI,OVCAR-3 ovarian,> 100 µM
same,TGI,OVCAR-4 ovarian,> 100 µM
same,TGI,OVCAR-5 ovarian,> 100 µM
same,TGI,OVCAR-8 ovarian,> 100 µM
same,TGI,PC-3 prostate,> 100 µM
same,TGI,RPMI-8226 leukemia,> 100 µM
same,TGI,RXF 393 renal,> 100 µM
same,TGI,SF-268 CNS,> 100 µM
same,TGI,SF-295 CNS,> 100 µM
same,TGI,SF-539 CNS,> 100 µM
same,TGI,SK-MEL-2 melanoma,> 100 µM
same,TGI,SK-MEL-28 melanoma,> 100 µM
same,TGI,SK-MEL-5 melanoma,> 100 µM
same,TGI,SK-OV-3 ovarian,> 100 µM
same,TGI,SN12C renal,> 100 µM
same,TGI,SNB-75 CNS,> 100 µM
same,TGI,SR leukemia,> 100 µM
same,TGI,SW-620 colon,> 100 µM
same,TGI,T-47D breast,> 100 µM
same,TGI,TK-10 renal,> 100 µM
same,TGI,U251 CNS,> 100 µM
same,TGI,UACC-257 melanoma,> 100 µM
same,TGI,UACC-62 melanoma,> 100 µM
same,TGI,UO-31 renal,> 100 µM
